Laboratory results: patent publication US20250311727A1, “SUBSTITUTED 2-AMINOAZINES AND SALTS THEREOF, AND USE THEREOF AS HERBICIDAL ACTIVE SUBSTANCES” (BAYER AKTIENGESELLSCHAFT, priority 2022, published 2025)

Tests used:
Format in all cases: in vivo
Abutilon theophrasti [1] = test: Post-emergence herbicidal efficacy at 320 g/ha, ABUTH; settings: rated visually after about 3 weeks vs untreated controls, 100% = plants have died
Description: (§1) Unwanted plants/weeds: • ABUTH: Abutilon theophrasti • ALOMY: Alopecurus myosuroides • AMARE: Amaranthus retroflexus • DIGSA: Digitaria sanguinalis • ECHCG: Echinochloa crus-galli • KCHSC: Kochia scoparia • LOLRI: Lolium rigidum • MATIN: Matricaria inodora • POAAN: Poa annua • POLCO: Polygonum convolvulus • SETVI: Setaria viridis • STEME: Stellaria media • VERPE: Veronica persica • VIOTR: Viola tricolor A. Post-Emergence Herbicidal Efficacy at 320 g/ha
(§2) Seeds of mono- and dicotyledonous weed plants were placed in plastic pots in sandy loam soil (doubly sown with in each case one species of mono- or dicotyledonous weed plants per pot), covered with soil and cultivated in a greenhouse under controlled growth conditions. 2 to 3 weeks after sowing, the test plants were treated at the one-leaf stage. The compounds of the invention, formulated in the form of wettable powders (WP) or as emulsion concentrates (EC), were applied to the green parts of the plants as aqueous suspension or emulsion with addition of 0.5% additive at a water application rate equivalent to 600 litres per hectare. After the test plants had been kept in the greenhouse under optimum growth conditions for about 3 weeks, the activity of the preparations was rated visually in comparison to untreated controls.
(§3) For example, 100% activity=the plants have died, 0% activity=like control plants.
(§4) Tables A1 to A10 below show the effects of selected compounds of the general formula (I) according to Table 1 on various harmful plants and at an application rate corresponding to 320 g/ha, which were obtained by the trial procedure specified above.

Alopecurus myosuroides [2] = test: Post-emergence herbicidal efficacy at 320 g/ha, ALOMY; settings: rated visually after about 3 weeks vs untreated controls, 100% = plants have died
Description: as §1, §2, §3, §4

Amaranthus retroflexus [3] = test: Post-emergence herbicidal efficacy at 320 g/ha, AMARE; settings: rated visually after about 3 weeks vs untreated controls, 100% = plants have died
Procedure, shortened: (§5)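 One-leaf-stage weeds, sandy loam pots, greenhouse; foliar spray of WP/EC, 0.5% additive, 600 L/ha water; visual rating at ~3 wk, 0–100% vs untreated.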

Echinochloa crus-galli [4] = test: Post-emergence herbicidal efficacy at 320 g/ha, ECHCG; settings: rated visually after about 3 weeks vs untreated controls, 100% = plants have died
Description: as §1, §2, §3, §4

Kochia scoparia [5] = test: Post-emergence herbicidal efficacy at 320 g/ha, KCHSC; settings: rated visually after about 3 weeks vs untreated controls, 100% = plants have died
Procedure, shortened: as §5

Setaria viridis [6] = test: Post-emergence herbicidal efficacy at 320 g/ha, SETVI; settings: rated visually after about 3 weeks vs untreated controls, 100% = plants have died
Description: as §1, §2, §3, §4

Stellaria media [7] = test: Post-emergence herbicidal efficacy at 320 g/ha, STEME; settings: rated visually after about 3 weeks vs untreated controls, 100% = plants have died
Procedure, shortened: as §5

Veronica persica [8] = test: Post-emergence herbicidal efficacy at 320 g/ha, VERPE; settings: rated visually after about 3 weeks vs untreated controls, 100% = plants have died
Procedure, shortened: as §5

Abutilon theophrasti [9] = test: Post-emergence herbicidal efficacy at 80 g/ha, ABUTH; settings: rated visually after about 3 weeks vs untreated controls, 100% = plants have died
Description: as §1
(§6) Seeds of monocotyledonous and dicotyledonous weeds and crop plants were placed in sandy loam in plastic or organic planting pots, covered with soil and cultivated in a greenhouse under controlled growth conditions. 2 to 3 weeks after sowing, the test plants were treated at the one-leaf stage. The compounds of the invention, formulated in the form of wettable powders (WP) or as emulsion concentrates (EC), were then sprayed onto the green parts of the plants as aqueous suspension or emulsion with addition of 0.5% additive at a water application rate of 600 l/ha (converted). After the test plants had been kept in the greenhouse under optimum growth conditions for about 3 weeks, the activity of the preparations was rated visually in comparison to untreated controls. For example, 100% activity=the plants have died, 0% activity=like control plants.
(§7) Tables B1 to B11 below show the effects of selected compounds of the general formula (I) according to Table 1 on various harmful plants and an application rate corresponding to 80 g/ha, which were obtained by the experimental procedure mentioned above.

Alopecurus myosuroides [10] = test: Post-emergence herbicidal efficacy at 80 g/ha, ALOMY; settings: rated visually after about 3 weeks vs untreated controls, 100% = plants have died
Description: as §1, §6, §7

Amaranthus retroflexus [11] = test: Post-emergence herbicidal efficacy at 80 g/ha, AMARE; settings: rated visually after about 3 weeks vs untreated controls, 100% = plants have died
Description: as §1, §6, §7

Veronica persica [12] = test: Post-emergence herbicidal efficacy at 80 g/ha, VERPE; settings: rated visually after about 3 weeks vs untreated controls, 100% = plants have died
Description: as §1, §6, §7

Viola tricolor [13] = test: Post-emergence herbicidal efficacy at 80 g/ha, VIOTR; settings: rated visually after about 3 weeks vs untreated controls, 100% = plants have died
Description: as §1, §6, §7

Abutilon theophrasti [14] = test: Pre-emergence herbicide efficacy at 320 g/ha, ABUTH; settings: scored visually after about 3 weeks vs untreated controls, 100% = plants have died
Description: as §1
(§8) Seeds of mono- and dicotyledonous weed plants were placed in plastic pots in sandy loam soil (doubly sown with one species each of mono- or dicotyledonous weed plants per pot) and covered with soil. The compounds of the invention, formulated in the form of wettable powders (WP) or as emulsion concentrates (EC), were then applied to the surface of the covering soil as aqueous suspension or emulsion with addition of 0.5% additive at a water application rate of 600 litres per hectare (converted). After the treatment, the pots were placed in a greenhouse and kept under good growth conditions for the test plants. After about 3 weeks, the efficacy of the preparations was scored visually in comparison with untreated controls as percentages.
as §3
(§9) Tables C1 to C12 below show the effects of selected compounds of the general formula (I) according to Table 1 on various harmful plants and at an application rate corresponding to 320 g/ha, which were obtained by the trial procedure specified above.

Alopecurus myosuroides [15] = test: Pre-emergence herbicide efficacy at 320 g/ha, ALOMY; settings: scored visually after about 3 weeks vs untreated controls, 100% = plants have died
Description: as §1, §8, §3, §9

Amaranthus retroflexus [16] = test: Pre-emergence herbicide efficacy at 320 g/ha, AMARE; settings: scored visually after about 3 weeks vs untreated controls, 100% = plants have died
Procedure, shortened: (§10)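 Compound formulated as wettable powder or emulsion concentrate is applied onto covered, sown sandy loam soil with 0.5% additive. Plants grow under greenhouse conditions, and after roughly 3 weeks weed control is rated by eye as a percentage relative to untreated pots.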

Digitaria sanguinalis [17] = test: Pre-emergence herbicide efficacy at 320 g/ha, DIGSA; settings: scored visually after about 3 weeks vs untreated controls, 100% = plants have died
Description: as §1, §8, §3, §9

Echinochloa crus-galli [18] = test: Pre-emergence herbicide efficacy at 320 g/ha, ECHCG; settings: scored visually after about 3 weeks vs untreated controls, 100% = plants have died
Description: as §1, §8, §3, §9

Kochia scoparia [19] = test: Pre-emergence herbicide efficacy at 320 g/ha, KCHSC; settings: scored visually after about 3 weeks vs untreated controls, 100% = plants have died
Description: as §1, §8, §3, §9

Poa annua = test: Pre-emergence herbicide efficacy at 320 g/ha, POAAN; settings: scored visually after about 3 weeks vs untreated controls, 100% = plants have died
Description: as §1, §8, §3, §9

Setaria viridis [20] = test: Pre-emergence herbicide efficacy at 320 g/ha, SETVI; settings: scored visually after about 3 weeks vs untreated controls, 100% = plants have died
Procedure, shortened: as §10

Stellaria media [21] = test: Pre-emergence herbicide efficacy at 320 g/ha, STEME; settings: scored visually after about 3 weeks vs untreated controls, 100% = plants have died
Description: as §1, §8, §3, §9

Veronica persica [22] = test: Pre-emergence herbicide efficacy at 320 g/ha, VERPE; settings: scored visually after about 3 weeks vs untreated controls, 100% = plants have died
Description: as §1, §8, §3, §9

Amaranthus retroflexus [23] = test: Pre-emergence herbicide efficacy at 80 g/ha, AMARE; settings: scored visually after about 3 weeks vs untreated controls, 100% = plants have died
Description: as §1
(§11) Seeds of monocotyledonous and dicotyledonous weed plants and crop plants were placed in plastic or organic planting pots and covered with soil. The compounds of the invention, formulated in the form of wettable powders (WP) or as emulsion concentrates (EC), were then applied to the surface of the covering soil as aqueous suspension or emulsion with addition of 0.5% additive at a water application rate equivalent to 600 l/ha. After the treatment, the pots were placed in a greenhouse and kept under good growth conditions for the test plants. After about 3 weeks, the efficacy of the preparations was scored visually in comparison with untreated controls as percentages. For example, 100% activity=the plants have died, 0% activity=like control plants.
(§12) Tables D1 to D12 below show the effects of selected compounds of the general formula (I) according to Table 1 on various harmful plants and an application rate corresponding to 80 g/ha, which were obtained by the experimental procedure mentioned above.

Digitaria sanguinalis [24] = test: Pre-emergence herbicide efficacy at 80 g/ha, DIGSA; settings: scored visually after about 3 weeks vs untreated controls, 100% = plants have died
Description: as §1, §11, §12

Polygonum convolvulus = test: Pre-emergence herbicide efficacy at 80 g/ha, POLCO; settings: scored visually after about 3 weeks vs untreated controls, 100% = plants have died
Description: as §1, §11, §12

Setaria viridis [25] = test: Pre-emergence herbicide efficacy at 80 g/ha, SETVI
Description: as §1, §11, §12

Viola tricolor [26] = test: Pre-emergence herbicide efficacy at 80 g/ha, VIOTR
Description: as §1, §11, §12

Cc1cnc(Nc2cccc(F)c2-c2cc(C(F)F)no2)nc1 [Example 1-36]
Post-emergence efficacy at 320 g/ha against ABUTH in % (Abutilon theophrasti [1]): 100%
Post-emergence efficacy at 320 g/ha against ALOMY in % (Alopecurus myosuroides [2]): 100%
Post-emergence efficacy at 320 g/ha against AMARE in % (Amaranthus retroflexus [3]): 100%
Post-emergence efficacy at 320 g/ha against ECHCG in % (Echinochloa crus-galli [4]): 100%
Post-emergence efficacy at 320 g/ha against KCHSC in % (Kochia scoparia [5]): 100%
Post-emergence efficacy at 320 g/ha against SETVI in % (Setaria viridis [6]): 100%
Post-emergence efficacy at 320 g/ha against STEME in % (Stellaria media [7]): 100%
Post-emergence efficacy at 320 g/ha against VERPE in % (Veronica persica [8]): 100%
Post-emergence efficacy at 80 g/ha against ABUTH in % (Abutilon theophrasti [9]): 100%
Post-emergence efficacy at 80 g/ha against ALOMY in % (Alopecurus myosuroides [10]): 80%
Post-emergence efficacy at 80 g/ha against AMARE in % (Amaranthus retroflexus [11]): 90%
Post-emergence efficacy at 80 g/ha against VERPE in % (Veronica persica [12]): 80%
Post-emergence efficacy at 80 g/ha against VIOTR in % (Viola tricolor [13]): 100%
Pre-emergence efficacy at 320 g/ha against ABUTH in % (Abutilon theophrasti [14]): 100%
Pre-emergence efficacy at 320 g/ha against ALOMY in % (Alopecurus myosuroides [15]): 100%
Pre-emergence efficacy at 320 g/ha against AMARE in % (Amaranthus retroflexus [16]): 100%
Pre-emergence efficacy at 320 g/ha against DIGSA in % (Digitaria sanguinalis [17]): 100%
Pre-emergence efficacy at 320 g/ha against ECHCG in % (Echinochloa crus-galli [18]): 100%
Pre-emergence efficacy at 320 g/ha against KCHSC in % (Kochia scoparia [19]): 100%
Pre-emergence efficacy at 320 g/ha against POAAN in % (Poa annua): 100%
Pre-emergence efficacy at 320 g/ha against SETVI in % (Setaria viridis [20]): 100%
Pre-emergence efficacy at 320 g/ha against STEME in % (Stellaria media [21]): 100%
Pre-emergence efficacy at 320 g/ha against VERPE in % (Veronica persica [22]): 100%
Pre-emergence efficacy at 80 g/ha against AMARE in % (Amaranthus retroflexus [23]): 90%
Pre-emergence efficacy at 80 g/ha against DIGSA in % (Digitaria sanguinalis [24]): 90%
Pre-emergence efficacy at 80 g/ha against POLCO in % (Polygonum convolvulus): 90%
Pre-emergence efficacy against SETVI (Setaria viridis [25]): 90%
Pre-emergence efficacy against VIOTR (Viola tricolor [26]): 80%
